{"source": "patent US20210386705A1", "about": "“APPLICATION OF CHIGLITAZAR AND RELATED COMPOUNDS THEREOF” (SHENZHEN CHIPSCREEN BIOSCIENCES CO., LTD., priority 2018, published 2021)", "key": {"[1]": {"molecular_target": "T1, PPARγ (Homo sapiens, UniProt P37231)", "T1 construct": "expressed in transfected cells; host or cells: human hepatocyte cell line L-02", "T1 sequence (P37231 1-505)": "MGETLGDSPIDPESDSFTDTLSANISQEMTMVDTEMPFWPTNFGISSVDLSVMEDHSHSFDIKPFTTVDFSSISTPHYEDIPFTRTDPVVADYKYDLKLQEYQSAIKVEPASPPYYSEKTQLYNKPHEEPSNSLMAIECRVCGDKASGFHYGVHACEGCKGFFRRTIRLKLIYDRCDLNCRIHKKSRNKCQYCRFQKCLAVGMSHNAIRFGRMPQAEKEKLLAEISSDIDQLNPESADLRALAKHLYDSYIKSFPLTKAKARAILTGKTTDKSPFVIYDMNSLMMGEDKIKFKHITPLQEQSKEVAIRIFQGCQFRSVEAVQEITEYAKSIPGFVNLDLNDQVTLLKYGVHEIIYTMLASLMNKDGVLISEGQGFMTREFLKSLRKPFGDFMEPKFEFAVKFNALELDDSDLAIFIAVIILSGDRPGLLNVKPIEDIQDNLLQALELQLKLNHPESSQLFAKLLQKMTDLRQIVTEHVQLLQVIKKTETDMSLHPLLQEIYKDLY", "T1 sequence (P19793 1-462 partner)": "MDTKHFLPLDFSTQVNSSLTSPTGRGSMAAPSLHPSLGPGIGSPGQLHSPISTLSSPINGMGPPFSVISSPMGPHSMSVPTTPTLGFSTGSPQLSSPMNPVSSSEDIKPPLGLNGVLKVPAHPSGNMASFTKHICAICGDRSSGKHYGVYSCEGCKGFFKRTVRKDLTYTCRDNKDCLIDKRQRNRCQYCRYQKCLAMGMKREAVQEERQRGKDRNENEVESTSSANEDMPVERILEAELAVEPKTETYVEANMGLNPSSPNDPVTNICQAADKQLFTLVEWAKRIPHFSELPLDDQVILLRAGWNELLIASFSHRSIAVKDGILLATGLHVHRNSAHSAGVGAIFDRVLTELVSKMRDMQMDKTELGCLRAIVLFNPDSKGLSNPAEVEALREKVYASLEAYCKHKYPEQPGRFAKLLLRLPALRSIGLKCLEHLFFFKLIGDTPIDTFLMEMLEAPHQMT", "experiment": "PPAR reporter gene model in L-02 cells, PPARγ", "format": "cell-based", "conditions": "luciferase reporter, 24 hours drug, read-out: Half-maximal activation concentration of reporter gene AC50, PPARγ", "protocol": "The PPAR reporter gene model comprises three subtypes of expression plasmids, RXR expression plasmid, plasmid with luciferase reporter gene, and GFP expression plasmid as an external reference. The human hepatocyte cell line L-02 cells were seeded into 96-well plates at the density of 15,000 cells/well with about 50% plating rate, followed by culturing for 24 hours at 37° C. […] The fluorescence intensity (at wavelength 485-527 nm) of green fluorescent protein (GFP) in each well was firstly detected as an internal standard by a fluorescence detector, and then 30 μL of luciferase substrates (Promega, E151A) were added to each well. After slightly shaking to mix well, the […] were detected. The relative reporter gene activation intensity was obtained by the ratio of the fluorescence detection signal of the drugs to be tested to that of the solvent control, with both the signals normalized to the internal standard GFP signal. The half-maximal activation (AC50) of the drugs to be tested was calculated with the activity at various concentrations (shown in Table 1)."}, "[2]": {"system": "monocytic cell line THP-1", "experiment": "MCP-1-induced chemotaxis of THP-1 cells (Transwell)", "format": "cell-based, human", "conditions": "MCP-1 10 ng/mL, compound 3 μmol/L", "source_text": "In an in vitro model, migration of the monocytic cell line THP-1 induced by a certain concentration of chemokines (such as monocyte chemotactic protein 1, MCP-1), and accordingly such in vivo process was mimicked. Transwell technology, according to the manufacturer's instructions from Corning Inc., is considered that Traswell is a kind of a polycarbonate membrane filter as well as a permeable holder. The polycarbonate membrane divides a culture chamber into upper and lower ones, where the components of the culture medium in the lower chamber can affect the growth, differentiation and movement of the cells in upper chamber. Finally, the cell migration ability can be reflected by staining and counting the cells in the lower chamber.\nWhen cultured to the log phase stage, THP-1 cells were resuspended, adjusted the concentration, and seeded in 24-well plates, followed by being pretreated with the culture media containing the compound to be tested (sodium chiglitazar) or the reference compound GFT505, pioglitazone, or PPARγ single agonist rosiglitazone (all purchased from Selleck) for 24 hours. Transwells were used according to the manufacturer's instructions. The culture media containing chemokine MCP-1 were added to the lower chamber (i.e., the bottom of the 24-well plates), and the cell suspension was added to the upper chamber and cultured for 4 hours. Later, the cells cultured on the “ceiling” surface of the polycarbonate membrane were fixed and stained with crystal violet solution (FIG. 6), and then the number of cells in the lower chamber was counted (Table 3)."}, "[3]": {"conditions": "24 hours pretreatment, 4 hours migration"}}, "note": "Several values for one entry are separate records, joined by “and”; a condition that tells them apart may be missing. Equal entries are not always repeated."}
{"smiles": "O=C(c1ccc(F)cc1)c1ccccc1N[C@@H](Cc1ccc(OCCn2c3ccccc3c3ccccc32)cc1)C(=O)[O-].[Na+]", "note": "[sodium chiglitazar]", "values": [{"measurement": "AC50", "setting": "[1]", "value": 91, "unit": "nM"}, {"measurement": "Cell concentration in lower chamber, Mean value", "setting": "[2]; [3]", "value": 10012, "unit": "cells/ml"}, {"measurement": "Cell concentration in lower chamber, single replicates", "setting": "[2]; [3]", "value": "10630 cells/ml and 9760 cells/ml and 9646 cells/ml"}, {"measurement": "Inhibition of migration activity of THP-1 induced by monocyte chemokine (in words)", "setting": "[2]; Table 3 and FIG. 6", "value": "significantly inhibited"}, {"measurement": "Migration rate", "setting": "[2]; solvent control + MCP-1 = 100", "value": 33.12, "unit": "%"}]}
